Measurements taken from patent publication US8546403B2, “Compounds that modulate intracellular calcium” (Calcimedica, Inc., priority 2010, dated 2013).

experiment: Microsomal stability of compounds (liver microsomes, LC/MS/MS); assay type: in vitro ADME; settings: 5 μM test compound, 1 mg/mL microsomal protein, 37° C. up to 60 minutes, species and Phase I / Phase I+II not given
Experimental: Microsomal Stability of Compounds Described Herein
Liver microsomes are purchased from XenoTech, LLC (Lenexa, Kans.). Other chemicals are obtained from Sigma-Aldrich (Milwaukee, Wis.). Solvents for LC/MS/MS mobile phases and disposable labware are obtained from various vendors.
Study Protocol Phase I Only (Oxidative Metabolism in the Presence of NADPH-Regenerating System but without UDPGA):
A mixture of the test compound and liver microsomes (475 μL total) are pre-incubated for 5 minutes at 37° C. The reactions are initiated by the addition of 25 μL of the co-factor NADPH regenerating system) and are allowed to proceed at 37° C. for up to 60 minutes. The final concentrations in the assay were: 5 μM test compound, 1 mg/mL microsomal protein, 1 mM NADP+, 5 mM glucose-6-phosphate and 1 U/mL glucose-6-phosphate dehydrogenase in 50 mM potassium phosphate (pH 7.4) containing 3.3 mM MgCl2 and 100 μM EDTA. […] At pre-determined time points, the reactions are terminated by removing 50 μL-aliquots and quenching them with […] of ACN mixture containing 0.5 μM of the internal standard (carbamazepine) to achieve protein precipitation. The samples are vortexed, centrifuged at 4000 rpm (3400 rcf) for 15 minutes, and clear supernatants are analyzed by LC/MS/MS.
Phase I and II: (Oxidative Metabolism and Conjugation in the Presence of NADPH-Regenerating System and UDPGA):
The reaction mixtures are prepared similar to what is described above, except 6.6 mM UDPGA, 6.25 μg/mL alamethicin, and 1.25 mM of D-Saccharic acid 1,4-lactone (final assay concentrations) are also added together with the NADPH-regenerating system. Midazolam and 4-methylumbelliferone are used as positive controls for Phase I and Phase II, respectively.
Bioanalysis is conducted using a non-GLP LC/MS/MS method. Calibration curves are not generated and the ratios of the test compound peak area to the internal standard peak area are used to determine the relative amounts of test compound remaining at each time point.

Compound | Microsomal t ½ (min)
Cc1ccc(F)cc1C(=O)Nc1cnc(-c2cc3c(cc2Cl)OC(F)(F)O3)cn1 [Compound 19] | Stable (Stable is defined herein as less than 10% degradation)
Cc1cc2c(cc1-c1ccc(NC(=O)c3c(F)cncc3F)nc1)OC(F)(F)O2 [Compound 35] | Stable (Stable is defined herein as less than 10% degradation)
Cc1nnsc1C(=O)Nc1cnc(-c2cc3c(cc2Cl)OC(F)(F)O3)cn1 [Compound 14] | Stable (Stable is defined herein as less than 10% degradation)
Cc1cc2c(cc1-c1cnc(NC(=O)c3c(F)cccc3F)cn1)OC(F)(F)O2 [Compound 23] | Stable (Stable is defined herein as less than 10% degradation)
O=C(Nc1cnc(-c2cc3c(cc2Cl)OC(F)(F)O3)cn1)c1cccc(F)c1F [Compound 18] | Stable (Stable is defined herein as less than 10% degradation)
Cc1cc2c(cc1-c1ccc(NC(=O)c3c(F)cccc3F)nc1)OC(F)(F)O2 [Compound 21] | Stable (Stable is defined herein as less than 10% degradation)
Cc1ccccc1C(=O)Nc1cnc(-c2cc3c(cc2Cl)OC(F)(F)O3)cn1 [Compound 17] | Stable (Stable is defined herein as less than 10% degradation)
O=C(Nc1cnc(-c2cc3c(cc2Cl)OC(F)(F)O3)cn1)c1ccccc1F [Compound 13] | Stable (Stable is defined herein as less than 10% degradation)
CC(C)C(=O)Nc1ccc(-c2cc3c(cc2Cl)OC(F)(F)O3)cn1 [Compound 34] | Stable (Stable is defined herein as less than 10% degradation)
Cc1cc2c(cc1-c1cnc(NC(=O)c3c(F)cncc3F)cn1)OC(F)(F)O2 [Compound 28] | Stable (Stable is defined herein as less than 10% degradation)
O=C(Nc1ccc(-c2cc3c(cc2Cl)OC(F)(F)O3)cn1)c1c(F)cccc1F [Compound 3] | Stable (Stable is defined herein as less than 10% degradation)
O=C(Nc1ccc(-c2cc3c(cc2Cl)OC(F)(F)O3)cn1)c1ccncc1Cl [Compound 8] | Stable (Stable is defined herein as less than 10% degradation)
Cc1cc2c(cc1-c1cnc(NC(=O)c3ccccc3F)cn1)OC(F)(F)O2 [Compound 25] | Stable (Stable is defined herein as less than 10% degradation)
O=C(Nc1ccc(-c2cc3c(cc2Cl)OC(F)(F)O3)cn1)c1c(F)cncc1F [Compound 9] | Stable (Stable is defined herein as less than 10% degradation)

same assay, conditions: pH 7.4, 5 μM test compound, 1 mg/mL microsomal protein, 37° C. up to 60 minutes, species and Phase I / Phase I+II not given, read-out: Microsomal t ½

half-life at 5 μM [min] | Compound
47 | Cc1ccc(F)cc1C(=O)Nc1cnc(-c2cc3c(cc2C)OC(F)(F)O3)cn1 [Compound 26]
339 | O=C(Nc1ccc(-c2cc3c(cc2Cl)OC(F)(F)O3)cn1)c1ccncc1Cl [Compound 7]
81 | O=C(Nc1ccc(-c2cc3c(cc2Cl)OC(F)(F)O3)cn1)C1CC1 [Compound 33]
40 | O=C(Nc1ccc(-c2cc3c(cc2Cl)OC(F)(F)O3)cn1)C1CCCC1 [Compound 27]
11 | O=C(Nc1ccc(-c2cc3c(cc2Cl)OC(F)(F)O3)cn1)C1CCC1 [Compound 30]
38 | O=C(Nc1cnc(-c2cc3c(cc2Cl)OC(F)(F)O3)cn1)C1CCCC1 [Compound 29]
36 | [2H]C1([2H])Oc2cc(C)c(-c3ccc(NC(=O)c4c(F)cccc4F)nc3)cc2O1 [Compound 15]
26 | O=C(CCc1ccccc1)Nc1ccc(-c2cc3c(cc2Cl)OC(F)(F)O3)cn1 [Compound 31]
17 | [2H]C1([2H])Oc2cc(C)c(-c3cnc(NC(=O)c4c(F)cccc4F)cn3)cc2O1 [Compound 16]
22 | Cc1cc2c(cc1-c1ccc(NC(=O)c3c(F)cccc3F)nc1)OCO2 [Compound 10]
6 | O=C(Nc1ccc(-c2cc3c(cc2Br)OCO3)cn1)c1c(F)cccc1F [Compound 1]
67 | Cc1ccccc1C(=O)Nc1cnc(-c2cc3c(cc2C)OC(F)(F)O3)cn1 [Compound 24]
3 | O=C(Nc1ccc(-c2cc3c(cc2Br)OCO3)cc1)c1c(F)cccc1F [Compound 2]
281 | O=C(Nc1ccc(-c2cc3c(cc2Cl)OC(F)(F)O3)cn1)c1ccncc1F [Compound 4]
74 | Cc1c(F)cccc1C(=O)Nc1cnc(-c2cc3c(cc2Cl)OC(F)(F)O3)cn1 [Compound 20]
19 | CCCC(=O)Nc1ccc(-c2cc3c(cc2Cl)OC(F)(F)O3)cn1 [Compound 32]
109 | Cc1ccccc1C(=O)Nc1ccc(-c2cc3c(cc2C)OC(F)(F)O3)cn1 [Compound 22]
